Data published in patent US20080004317A1, “Compounds” (AstraZeneca AB, priority 2004, published 2008).
In brackets after ≈: the same amount, converted by molar mass.

Columns and labels:
[1] = target: T1, Recombinant human MMP12 catalytic domain (Homo sapiens, UniProt P39900); assay: MMP12 isolated enzyme assay; assay type: biochemical; conditions: read-out: hMMP12 IC50
T1 construct: Recombinant human MMP12 catalytic domain; made in house
Experimental: Recombinant human MMP12 catalytic domain may be expressed and purified as described by Parkar A. A. et al, (2000), Protein Expression and Purification, 20, 152. The purified enzyme can be used to monitor inhibitors of activity as follows: MMP12 (50 ng/ml final concentration) is incubated for 60 minutes at room temperature with the synthetic substrate Mca-Pro-Cha-Gly-Nva-His-Ala-Dpa-NH2 (10 μM) in assay buffer (0.1M “Tris-HCl”™ buffer, pH 7.3 containing 0.1M NaCl, 20 mM CaCl2, 0.020 mM ZnCl and 0.05% (w/v) “Brij 35”™ detergent) in the presence (10 concentrations) or absence of inhibitors. Activity is determined by measuring the fluorescence at λex 320 nm and λem 405 nm. Percent inhibition is calculated as follows: % Inhibition is equal to the [Fluorescenceplus inhibitor−Fluorescencebackground] divided by the [Fluorescenceminus inhibitor−Fluorescencebackground]. MMP8

[2] = target: T2, Recombinant human MMP9 catalytic domain (Homo sapiens, UniProt P14780); assay: MMP9 isolated enzyme assay; assay type: biochemical; conditions: read-out: hMMP9 IC50
T2 sequence (P14780 with tags, fused parts or gaps DEL216-390 limits assumed): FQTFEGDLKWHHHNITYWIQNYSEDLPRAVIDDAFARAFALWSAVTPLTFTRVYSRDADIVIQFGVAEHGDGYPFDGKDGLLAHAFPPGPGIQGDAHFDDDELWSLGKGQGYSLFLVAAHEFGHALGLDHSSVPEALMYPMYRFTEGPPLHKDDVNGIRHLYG
Experimental: Recombinant human MMP9 catalytic domain was expressed and then purified by Zn chelate column chromatography followed by hydroxamate affinity column chromatography. The enzyme can be used to monitor inhibitors of activity as follows: MMP9 (5 ng/ml final concentration) is incubated for 30 minutes at RT with the synthetic substrate Mca-Pro-Cha-Gly-Nva-His-Ala-Dpa-NH2 (5 μM) in assay buffer (0.1M “Tris-HCl”™ buffer, pH 7.3 containing 0.1M NaCl, 20 mM CaCl2, 0.020 mM ZnCl and 0.05% (w/v) “Brij 35”™ detergent) in the presence (10 concentrations) or absence of inhibitors. Activity is determined by measuring the fluorescence at λex 320 nm and λem 405 nm. Percent inhibition is calculated as follows: % Inhibition is equal to the [Fluorescenceplus inhibitor−Fluorescencebackground] divided by the [Fluorescenceminus inhibitor−Fluorescencebackground]. MMP14
A protocol for testing against other matrix metalloproteinases, including MMP9, using expressed and purified pro MMP is described, for instance, by C. Graham Knight et al., (1992) FEBS Lett., 296(3), 263-266.

MMP8 = target: T3, MMP8 (Homo sapiens, UniProt P22894); assay: MMP8 isolated enzyme assay; assay type: biochemical; conditions: read-out: hMMP8 IC50
T3 construct: purchased Calbiochem
Experimental: Purified pro-MMP8 is purchased from Calbiochem. The enzyme (at 10 μg/ml) is activated by p-amino-phenyl-mercuric acetate (APMA) at 1 mM for 2.5 h, 35° C. The activated enzyme can be used to monitor inhibitors of activity as follows: MMP8 (200 ng/ml final concentration) is incubated for 90 minutes at 35° C. (80% H2O) with the synthetic substrate Mca-Pro-Cha-Gly-Nva-His-Ala-Dpa-NH2 (12.5 μM) in assay buffer (0.1M “Tris-HCl”™ buffer, pH 7.5 containing 0.1M NaCl, 30 mM CaCl2, 0.040 mM ZnCl and 0.05% (w/v) “Brij 35”™ detergent) in the presence (10 concentrations) or absence of inhibitors. Activity is determined by measuring the fluorescence at λex 320 nm and λem 405 nm. Percent inhibition is calculated as follows: % Inhibition is equal to the [Fluorescenceplus inhibitor−Fluorescencebackground] divided by the [Fluorescenceminus inhibitor−Fluorescencebackground]. MMP9

[3] = target: T4, Recombinant human MMP14 catalytic domain (Homo sapiens, UniProt P50281); assay: MMP14 isolated enzyme assay; assay type: biochemical; conditions: read-out: hMMP14 IC50
T4 construct: Recombinant human MMP14 catalytic domain; made in house
Experimental: Recombinant human MMP14 catalytic domain may be expressed and purified as described by Parkar A. A. et al, (2000), Protein Expression and Purification, 20, 152. The purified enzyme can be used to monitor inhibitors of activity as follows: MMP14 (10 ng/ml final concentration) is incubated for 60 minutes at room temperature with the synthetic substrate Mca-Pro-Cha-Gly-Nva-His-Ala-Dpa-NH2 (10 μM) in assay buffer (0.1M “Tris-HCl” (trade mark) buffer, pH 7.5 containing 0.1M NaCl, 20 mM CaCl2, 0.020 mM ZnCl and 0.05% (w/v) “Brij 35”™ detergent) in the presence (5 concentrations) or absence of inhibitors. Activity is determined by measuring the fluorescence at λex 320 nm and λem 405 nm. Percent inhibition is calculated as follows: % Inhibition is equal to the [Fluorescenceplus inhibitor−Fluorescencebackground] divided by the [Fluorescenceminus inhibitor−Fluorescencebackground].

[4] = Solubility in 0.1M phosphate buffer, pH 7.4; assay type: physicochemical; conditions: aqueous buffer, thermodynamic from solid, pH 7.4, 20° C.
Experimental: Protocol for Determination of Solubility
The test compound (1 mg) was weighed into a 2 mL glass vial with a screw cap and 0.1M phosphate buffer pH 7.4. (1.00 mL) was added. The sample vial was then sonicated for about 10 minutes and then placed on a shake board overnight at 20° C. The contents of the sample vial were then filtered through a Millipore Millex-LH 0.45 μm filter into a new 2 mL glass vial to give a clear solution. The clear solution (40 μL) was transferred to a new 2 mL glass vial and diluted with 0.1M phosphate buffer, pH 7.4 (960 μL).
A standard calibration curve for each particular test compound was established using solutions of known concentration. These solutions of known concentration were normally chosen to have concentrations of ˜10 μg/mL and ˜50 μg/mL. They were prepared by dissolving a known weight of the compound in 99.5% ethanol (500 μL) and then sonicating for one minute if necessary. If the compound was still not completely dissolved, DMSO (500 μL) was added and the mixture sonicated for an additional one minute. The resulting solution was then diluted to the appropriate volume with a mixture of acetonitrile/100 mM ammonium acetate pH 5.5 20-50/80-50. If necessary, a further, more dilute, standard solution was prepared by dilution.

plasma protein = assay: Plasma protein binding by ultrafiltration; assay type: in vitro ADME; conditions: 10 μM
Experimental: Plasma protein binding was determined by ultrafiltration in an automated 96 well format assay. On each test occasion the plasma protein binding of a reference compound (budesonide) was monitored in parallel.
Test compounds (10 mM dissolved in DMSO) were added to plasma to a final concentration of 10 μM and equilibrated at room temperature for 10 minutes. 350 μL of the plasma was transferred to an ultrafiltration plate, Microcon-96 (10 kDa cutoff, Millipore). The ultrafiltration plate was centrifuged at 3000 G for 70 minutes at room temperature. After centrifugation, the concentration of the compounds in the obtained plasma water (the unbound fraction) was determined by LC-MS/MS using a 3-point calibration curve and compared to the concentration in the original spiked plasma.
The analyses were performed using a gradient chromatographic system with acetic acid/acetonitrile as mobile phases. The detection was done using a triple quadropole mass spectrometer, API3000 or API4000, from Applied Biosystems, with an electrospray interface.

T3 sequence (P22894 101-467): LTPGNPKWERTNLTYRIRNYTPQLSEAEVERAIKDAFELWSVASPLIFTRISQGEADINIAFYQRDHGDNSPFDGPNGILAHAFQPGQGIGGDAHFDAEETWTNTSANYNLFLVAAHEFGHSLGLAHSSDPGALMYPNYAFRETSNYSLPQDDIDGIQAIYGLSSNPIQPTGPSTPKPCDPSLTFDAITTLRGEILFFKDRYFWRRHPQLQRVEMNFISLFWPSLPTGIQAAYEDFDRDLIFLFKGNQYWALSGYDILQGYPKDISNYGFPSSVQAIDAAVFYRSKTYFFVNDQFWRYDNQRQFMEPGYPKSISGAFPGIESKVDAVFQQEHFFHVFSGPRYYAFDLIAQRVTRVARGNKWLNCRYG
T1 sequence (P39900 106-263 limits assumed): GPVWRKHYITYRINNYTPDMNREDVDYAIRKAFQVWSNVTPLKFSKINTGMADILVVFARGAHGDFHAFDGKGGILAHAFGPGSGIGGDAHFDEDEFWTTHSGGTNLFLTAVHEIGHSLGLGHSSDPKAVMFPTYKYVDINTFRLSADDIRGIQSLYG

Row | Structure (SMILES) | IC50 [1] [µM] | IC50 [2] [µM] | IC50 (MMP8) [µM] | IC50 [3] [µM] | solubility [4] [µM] | Protein binding (% free) (plasma protein)
1 | CCc1ccc(C#CC2=CCN(S(=O)(=O)C[C@@]3(C)NC(=O)NC3=O)CC2)cn1 [Example 4, (5S)-5-({[4-[(6-Ethylpyridin-3-yl)ethynyl]-3,6-dihydropyridin-1-(2H)-yl]sulfonyl}methyl)-5-methylimidazolidine-2,4-dione] | 0.003 | 0.008 | 0.78 | > 10 | 1300 (≈ 522 µg/mL) | 9.7
2 | C[C@]1(CS(=O)(=O)N2CC=C(C#Cc3ccccn3)CC2)NC(=O)NC1=O [WO 02/074767, page 119, (5S)-5-methyl-5-({[4-(pyridin-2-ylethynyl)-3,6-dihydropyridin-1(2H)-yl]sulfonyl}-methyl)-imidazolidine-2,4-dione, reference compound] | 0.14 | 11.2 | > 1 | > 1 | 1600 (≈ 598 µg/mL) | 
3 | C[C@]1(CS(=O)(=O)N2CC=C(C#Cc3ccc(C(F)(F)F)nc3)CC2)NC(=O)NC1=O [Example 5, (5S)-5-Methyl-5-({[4-{[6-(trifluoromethyl)pyridin-3-yl]ethynyl}-3,6-dihydropyridin-1(2H)-yl]sulfonyl}methyl)imidazolidine-2,4-dione] | 0.005 | 0.007 | 0.43 | > 10 | 41 (≈ 18.1 µg/mL) | 
